Assay results as given in US12215354B2, “Differentiation of human embryonic stem cells into single hormonal insulin positive cells” (Janssen Biotech, Inc., priority 2011, dated 2025).

System: human embryonic stem cell line H1
Test: Real-time PCR gene expression, dose and stage of ascorbic acid (Example 12)
Format: cell-based
Protocol: Cells of the human embryonic stem cell line H1 at various passages (passage 40 to passage 52) were seeded as single cells at a density of 100,000 cells/cm^2 on MATRIGEL™ (1:30 dilution) coated dishes in mTesr™1 media and 10 μM of Y27632. Forty eight hours post seeding, cultures were differentiated into pancreatic endocrine lineage as follows: • a. Stage 1 (Definitive Endoderm (DE)−3 days): Prior to start of DE, the cultures were washed and incubated with incomplete PBS (no Mg or Ca) for 30 seconds followed by addition of the stage 1 media. Human embryonic stem cells cultured as single cells on MATRIGEL™-coated dishes were treated with MCDB-131 medium supplemented with 0.1% fatty acid-free BSA, 0.0012 g/ml sodium bicarbonate, 1× GLUTAMAX™, 5 mM D-Glucose, and 100 ng/ml GDF8 plus 1 μM MCX compound (GSK3B inhibitor) for one day. Cells were then treated with MCDB-131 medium supplemented with 0.1% fatty acid-free BSA, 0.0012 g/ml sodium bicarbonate, 1× GLUTAMAX™, 5 mM glucose, and 100 ng/ml GDF8 plus 100 nM MCX compound for day two, followed by an additional day in MCDB-131 medium supplemented with 0.1% fatty acid-free BSA, 0.0012 g/ml sodium bicarbonate, 1× GLUTAMAX™, 5 mM Glucose, and 100 ng/ml GDF8. • b. Stage 2 (Primitive gut tube−2 days): Stage 1 cells were treated with MCDB-131 medium supplemented with 0.1% fatty acid-free BSA, 0.0012 g/ml sodium bicarbonate, 1× GLUTAMAX™, 5 mM D-Glucose, with or without the addition of 0.25 mM ascorbic acid and 25 ng/ml FGF7 for two days. • c. Stage 3 (Foregut−2 days): Stage 2 cells were treated with MCDB131 medium supplemented with 1:200 dilution of ITS-X, 2.5 mM Glucose, 1× GLUTAMAX™, 0.0015 g/ml sodium bicarbonate, 2% fatty acid-free BSA, 10 ng/ml Activin A, 25 ng/ml FGF7, 0.25 μM SANT-1, +/−0.25 mM ascorbic acid, 1 μM RA, 200 nM TPB, 100 nM LDN-193189 for day 1, followed by treatment with MCDB131 medium supplemented with 1:200 dilution of ITS-X, 2.5 mM Glucose, 1× GLUTAMAX™, 0.0015 g/ml sodium bicarbonate, 2% fatty acid-free BSA, 10 ng/ml Activin A, 25 ng/ml FGF7, 0.25 μM SANT-1, +/−0.25 mM ascorbic acid, 1 μM RA, 200 nM TPB, 10 nM LDN-193189 for an additional day. • d. Stage 4 (Pancreatic foregut precursor-2 days): Stage 3 cells were treated with MCDB131 medium supplemented with 1:200 dilution of ITS-X, 2.5 mM Glucose, 1× GLUTAMAX™, 0.0015 g/ml sodium bicarbonate, 2% fatty acid-free BSA, 0.25 μM SANT-1, 50 nM RA, 200 nM TPB, 50 nM LDN-193189, with or without the addition of 0.25 mM to 1 mM ascorbic acid for two days. • e. […]

[1] = at stage 5, ascorbic acid added at stages 2-4

O=C1O[C@H]([C@@H](O)CO)C(O)=C1O [ascorbic acid]
benefit of 0.5-1 mM as compared to 0.25 mM ascorbic acid (at S4): no significant benefit | expression of insulin and Pax4 [1]: maintaining | expression of somatostatin, glucagon, and Pax6 [1]: significantly reduced | expression of glucagon and somatostatin (at stage S3-5, ascorbic acid added at stage 2): effective in lowering
